For series [1], the system named is DLD-1 and HCT116 CRC cells. Nature of the series: Cell cycle analysis by flow cytometry (propidium iodide). The series is classed as cell-based, human. Particulars: 10 μM, over three days, vs vehicle, ML264, SR15006. The protocol:
SR18662 alters the cell cycle pattern of CRCs. […] We have also evaluated the impact of SR15006 and SR18662 on cell cycle progression. We treated DLD-1 and HCT116 CRC cells over the course of three days with vehicle or 1 μM or 10 μM of test compound and then analyzed cell cycle using flow cytometry.
(§1) Cell proliferation, cell cycle and apoptosis assays. For cell proliferation experiments, cell cycle, and apoptosis determination, DLD-1 and HCT116 cells were treated with 1 or 10 μM of each compound or with vehicle (DMSO). The cells were collected at 24, 48, and 72 h post-treatment and analyzed as previously described (24). Each experiment was performed in triplicate.
On the technique in general: Flow cytometry measures light scatter and fluorescence of single cells or particles in a stream.

The nature of series [2]: Oral bioavailability in mice. Format: in vivo.
A further series deals with DLD-1 cells. Put plainly: Apoptosis assay (Annexin V/PI, FACS), DLD-1. The series is classed as cell-based, human. The method, then: We performed an apoptosis assay using DLD-1 and HCT116 cells treated with vehicle or 1 μM or 10 μM of test compounds over the course of three days with Annexin V/P1 stain in combination with FACS analysis. […] This is accompanied by an increase in the population of cells in early and late apoptosis, as well as an increase in the dead cell population over the three days of treatment. […] This effect was more pronounced upon treatment with SR18662 than ML264 or SR15006 (FIGS. 4D-F). When a lower concentration (1 μM) of test compounds was used, only a small increase of the population of cells undergoing early apoptosis was seen after 72 h treatment with SRI8662.
as §1

The next series concerns EGR-1. Put plainly: Western blot of EGR-1 protein levels in DLD-1 cells. Particulars: 1 μM and 10 μM, 24 h. The series is classed as cell-based, human. The protocol:
We have studied the effects of SR18662 upon lowering KLF5 levels in colon cancer cell lines. […] The levels of the protein EGR-1 are lowered as well. In this experiment the test compounds were at 1 μM and 10 μM, and protein levels were measured after 24 h. […] The study was also repeated using HCT-116 cells rather than DLD-1 cells, with similar results. These compounds appear to dose-dependently reduce levels of KLF5 and EGR-1 proteins.
(§2) Western blot analysis. Total protein was extracted from cells with Laemmli buffer and the analysis was performed as described previously (24).

Series [3] has as its system DLD-1-derived tumor xenografts. Nature of the series: DLD-1 xenograft tumor growth in nude mice. Format: in vivo, mouse. The protocol: SR18862 inhibits the growth of CRC xenografts in vivo. To evaluate SRI8662 in an in vivo model we used CRC cells for a mouse xenograft study. As described in more detail in the Examples section, nude mice were injected with DLD-1 CRC cells. Tumors were allowed to grow to an approximate size of 100 mm^3, and then mice were injected with vehicle or with varied concentrations of SR18662, given once a day or twice a day for five days, followed by two days without injection, and then followed by five days with injections. The experiment was completed the day after the last injection. […] Significant differences in tumor size are apparent at the end of the treatment schedule (FIG. 6B). To further characterize the impact of SR18662 on the features of isolated tumors, we compared vehicle-treated mice with mice that had been treated with SR18662 twice a day. […] Because SR18662 had induced cell apoptosis and death in the in vitro setting, we stained the xenografts with PanCK and TUNEL to estimate the levels of apoptosis in the in vivo context.
Xenografts. All mice studies were approved by the Stony Brook University Institutional Animal Care and Use Committee (IACUC) and performed in accordance with institutional policies and NIH guidelines. […] Tumor volume was determined by caliper measurement and calculated by the established method (25). […] Mice were monitored and weighed every two days. […]

Series [4] relates to DLD-1, HCT116, HT29, and SW620 cells. Put plainly: Cell viability (Cell Titer-Glo) of four CRC cell lines. The series is classed as cell-based, human. Particulars: 24 h, FIGS. 2A-C. The method, then: SR18662 is potent inhibitor of CRC cell growth in vitro. […]. To examine the impact of these compounds on viability of CRC cell lines, we performed cell proliferation and cell growth assays using DLD-1 and HCT116 CRC cells. […] […]. Cell viability. DLD-1, HCT116, HT29, and SW620 cells were seeded in 96 well plate format and treated with DMSO or with compounds dissolved in DMSO in the range of 0.001 to 20 μM final concertation for 24 h and analyzed with the Cell Titer-Glo luciferase assay system (Promega) using a SpectraMax M3 (Molecular Devices) plate reader. The IC50 values were calculated using GraphPad Prism version 5.00 for Windows (GraphPad Software).
On the technique in general: In ATP-based viability assays light output follows the ATP content of the culture.

The test system of another series is Cyclin D1, E, A2, and B1. Nature of the series: Western blot of cyclin levels. The settings on record: DLD-1 and HCT116, 1 μM or 10 μM, 72 h. Format: cell-based, human.
From the text: Cyclins and their appropriate cyclin-dependent kinases form a regulatory network that allow cells to progress through the cell cycle (39, 40). […] SR15006, or SR18662, as compared to vehicle-treated cells. Thus, we investigated if these changes are accompanied by differences in the expression levels of cyclins. We focused our attention on Cyclin D1, E, A2, and B1, as we have previously shown that ML264 has inhibitory effect on their levels (24). […] Additionally, in contrast to ML264 or SR15006, SR18862 induced apoptosis and cell death.
as §2
On the technique in general: In western blotting, separated proteins are transferred to a membrane and probed.

The subject of the next series is KLF5. Nature of the series: Western blot of KLF5 protein levels in DLD-1 cells. The series is classed as cell-based, human. The settings on record: 1 μM and 10 μM, 24 h. The protocol: In this experiment the test compounds were at 1 μM and 10 μM, and protein levels were measured after 24 h.
as §2

For `CS(=O)(=O)N1CCN(C(=O)CNC(=O)/C=C/c2ccc(Cl)c(Cl)c2)CC1` [Example 9, (E)-3-(3,4-dichlorophenyl)-N-(2-(4-(methylsulfonyl)piperazin-1-yl)-2-oxoethyl)acrylamide], in series [1], the subG1 population result is on record as “significant increase in the number of cells within the subG1 population”. Moreover, the oral bioavailability entry in series [2] was “orally bioavailable”. Moreover, the “healthy cell count and apoptosis” value in the series on DLD-1 cells (DLD-1, 1 μM, 48 h and 72 h) is “decrease in healthy cell count at 48 h and 72 h and an increase in early and late apoptosis”. Further, the “population of healthy cells” value with DLD-1 cells (DLD-1, 10 μM, 48 and 72 h) was “significant decrease in the population of healthy cells”. Also, the “EGR-1 protein levels by Western blot” value with EGR-1 was “lowered”. Besides, in series [3] (i.p., 5-25 mg/kg once or twice a day), the “tumor growth vs vehicle-treated mice” value is listed as “dose-dependent reduction in tumor growth”. Also, the “growth of CRC xenografts” value in series [3] (once a day 10 mg/kg) is listed as “strong inhibitory effects”. Moreover, the “cell viability IC50 relative to ML264 and SR15006” value in series [4] was “about one log unit lower than those for ML264 and SR15006”. Further, in the series on Cyclin D1, E, A2, and B1, the levels of cyclins entry is “significant reduction in the levels of tested cyclins”. The “KLF5 protein levels by Western blot” value in the series with KLF5 is on record as “significantly reduced”.

Values taken from US12486227B2, “Small molecules for cancer therapy that reduce the expression of transcription factors KLF5 and EGR-1” (University of Florida Research Foundation, Incorporated, priority 2019, dated 2025).
